Results: patent US20080187588A1, “Formulations With Controlled Release Of Active Ingredient” (Bayer HealthCare AG, priority 2004, published 2008)
Counter-ions that a name gives are not always drawn.

What was measured:
[1] = pH-dependent solubility of vardenafil hydrochloride trihydrate; assay type: physicochemical
From the text: This great pH-dependence represents a hindrance in particular to the development of pharmaceutical dosage forms with controlled release of active ingredient for oral use, because the medicinal form is exposed on passage through the gastrointestinal (GI) tract to media with pH values varying greatly from about pH 1 to pH 7.5. In order to achieve a sufficient bioavailability from a slow-release medicinal form, a substance must be absorbed if possible over the entire gastrointestinal tract. […] A slowing of the release of active ingredient usually leads in the case of substances subject to a very large first-pass effect to complete loss of the oral bioavailability, because the slow rise in level of the active ingredient means that the concentrations in the portal vein blood remain so low that the capacity of the metabolizing liver enzymes is sufficient for complete degradation.

[2] = cited from earlier work

solubility ([1]; aqueous buffer, in 0.15 M phosphate buffer of pH 4) [µg/mL] | solubility ([1]; aqueous buffer, in 0.15 M phosphate buffer of pH 7) [µg/mL] | solubility ([1]; simulated gastric fluid, in 0.1 N hydrochloric acid) [µg/mL] | Structure (SMILES) | absolute oral bioavailability [2] [%]
870 | 30 | 65000 | CCCc1nc(C)c2c(=O)[nH]c(-c3cc(S(=O)(=O)N4CCN(CC)CC4)ccc3OCC)nn12 [vardenafil hydrochloride trihydrate] | 
 |  |  | CCCc1nc(C)c2c(=O)[nH]c(-c3cc(S(=O)(=O)N4CCN(CC)CC4)ccc3OCC)nn12 [vardenafil, {2-ethoxy-5-[(4-ethyl-1-piperazinyl)sulphonyl]phenyl}-5-methyl-7-propylimidazo[5,1-f]triazin-4(3H)-one] | 15
